Test results as given in publication PMC12320245 (International Journal of Biological Sciences, 2025).

Columns and labels:
[1] = system: cultured cortical astrocytes; assay: Intracellular cAMP levels in cultured astrocytes; assay type: cell-based; details: 1-hour treatment, 0.1 to 10 µM, particularly at 1 μM and 10 μM
[2] = system: cultured cortical astrocytes; assay: p-PKA substrate Western blot in astrocytes; assay type: cell-based; details: 10 µM AMX for 1 and 4 hours
[3] = system: primary hippocampal neurons; assay: Scratch injury: p-PKA analysis; assay type: cell-based, rat; details: 10 μM AMX immediately after scratch, 6 hours post-injury
Protocol: Primary hippocampal neurons were obtained from embryonic day 18 (E18) Sprague-Dawley rat embryos. Pregnant rats were anesthetized using 2-3% isoflurane in a gas mixture of 70% nitrous oxide and 30% oxygen. Following euthanasia, the hippocampi were carefully dissected, minced, and enzymatically dissociated using TrypLE Express (Gibco, NY, USA) for 10 minutes at 37°C. The tissue was further mechanically dissociated using fire-polished glass pipettes, and the resulting cell suspension was filtered through a 70 μm cell strainer to remove debris. Neurons were seeded at a density of 3 × 10^5 cells per well in 24-well plates pre-coated with poly-L-lysine (Sigma-Aldrich, Saint Louis, MO, USA). […]
A scratch injury model was used to mimic TBI in vitro. […] After the treatment period, neuronal damage and recovery were assessed using appropriate evaluation methods.
Six hours after the scratch assay, cellular activity was terminated by replacing the culture medium with 0.1 M HCl. Cell lysates were then collected and analyzed for PKA activity using a commercial PKA kinase activity assay kit (Abcam, ab139435), following the manufacturer's protocol. […] Substrate phosphorylation was detected using a phospho-specific primary antibody and an HRP-conjugated secondary antibody. […] PKA activity was quantified as optical density (OD) values and expressed relative to control samples.

[4] = system: primary hippocampal neurons; assay: Scratch injury: MAP2 / NeuN immunocytochemistry; assay type: cell-based, rat; details: scratched neurons, 24 hours after scratch
Protocol: Primary hippocampal neurons were obtained from embryonic day 18 (E18) Sprague-Dawley rat embryos. Pregnant rats were anesthetized using 2-3% isoflurane in a gas mixture of 70% nitrous oxide and 30% oxygen. Following euthanasia, the hippocampi were carefully dissected, minced, and enzymatically dissociated using TrypLE Express (Gibco, NY, USA) for 10 minutes at 37°C. The tissue was further mechanically dissociated using fire-polished glass pipettes, and the resulting cell suspension was filtered through a 70 μm cell strainer to remove debris. Neurons were seeded at a density of 3 × 10^5 cells per well in 24-well plates pre-coated with poly-L-lysine (Sigma-Aldrich, Saint Louis, MO, USA). Cells were maintained in neurobasal medium supplemented with B-27 (Thermo Fisher Scientific, Waltham, MA, USA), GlutaMAX (Gibco), and penicillin-streptomycin. The cultures were incubated at 37.5°C in a humidified atmosphere containing 5% CO₂. After seven days of growth, neurons were fixed with 4% paraformaldehyde (PFA) for 15 minutes at room temperature and subsequently stored at 4°C until their further use for immunostaining.
A scratch injury model was used to mimic TBI in vitro. […] After the treatment period, neuronal damage and recovery were assessed using appropriate evaluation methods. […]

hippocampus of TBI rats = assay: Controlled cortical impact TBI: hippocampal cAMP ELISA; assay type: in vivo; details: rat, 3 hours post-TBI, AMX 100 mg/kg i.p.
Protocol: This study used male Sprague-Dawley rats weighing 300-350 g and aged 8 weeks, obtained from DBL Co. (Chungcheongbuk-do, Republic of Korea). The rats were housed in a controlled environment with a temperature of 20 ± 2 °C, a relative humidity of 55 ± 5%, and a 12-hour light/dark cycle. They were provided ad libitum access to food and water. To minimize stress associated with transportation, animals underwent a one-week acclimatization period before the start of the experiments. All experimental procedures were conducted in compliance with the guidelines of the National Institutes of Health for the care and use of laboratory animals and were approved by the Hallym University Institutional Animal Care and Use Committee (protocol # Hallym 2022-23, approved on July 15, 2022). This manuscript follows the principles outlined in the Animal research: reporting in vivo experiments (ARRIVE) guidelines.
A controlled cortical impact (CCI) model was used to induce TBI in rats. Animals were anesthetized with 1-1.5% isoflurane in a 30:70 oxygen-to-nitrous oxide mixture and securely positioned in a stereotaxic frame. A 3 mm craniotomy was performed using a portable drill at a site 2.8 mm lateral to the midline and 3.0 mm posterior to Bregma. […]

IκB kinase ε (IKK-ε) = system: IκB kinase ε (IKK-ε); parameters: method as in PMID 23396208; details: cited from earlier work

CC(C)c1ccc2oc3nc(N)c(C(=O)O)cc3c(=O)c2c1 [AMX, amlexanox]
intracellular cAMP levels [1]: significantly increased intracellular cAMP levels | p-PKA levels [2]: increased p-PKA levels | p-PKA levels after scratch injury (ELISA) [3]: restored cAMP and p-PKA levels | MAP2 fluorescence intensity (dendritic loss) [4]: Increased MAP2 fluorescence intensity | number of NeuN-positive neurons [4]: significantly higher | hippocampal cAMP levels (ELISA) (hippocampus of TBI rats): restored cAMP levels to values comparable to sham controls | inhibition of IKK-ε (IκB kinase ε (IKK-ε)): dual inhibitor
